# Laboratory results from patent US9315818B2, “Plant expression constructs and methods of utilizing same” (priority 2006, dated 2016).
# Tests used:
# several fungi = settings: PRN spraying in field tests; U.S. Pat. No. 5,698,425; cited from earlier work
# Bemisia tabaci = assay: Transfer of IL-60-BS by Bemisia tabaci; format: in vivo; settings: insects fed on IL-60-BS-carrying tomato plants, transferred to healthy tomato plants; PCR
# Excerpt: Assay for Transfer of IL-60-BS by Bemisia tabaci—Bemisia tabaci were allowed to feed on IL-60-BS-carrying tomato plants (15 insects per plant). Insects were then fed on sucrose and transferred to healthy tomato plants. DNA was extracted from both types of plants and used as a template for PCR using primers which amplify a sequence specific to IL-60 (e.g. SEQ ID NO: 16 and NO: 17) or other relevant primer pairs.
# Wild TYLCV is transmitted by the whitefly, Bemisia tabaci. To test whether the viral vector is also transmitted through a viral natural transmitter, plants carrying the IL-60-BS vector were fed to B. tabaci.
# plant genome = assay: Southern blot for integration into the plant genome; format: in vivo, tomato; settings: BglII-cleaved vs uncleaved DNA
# Description: Molecular analysis—Southern analysis was carried out according to standard procedures (e.g as set forth in Sambrook, J. & Russel, D. W. Molecular Cloning, Third Edition. Cold Spring Harbor Laboratory Press, Cold Spring Harbor (2001)). Probes for Southern analysis were labeled by the PCR-DIG procedure (Roche Molecular Biochemicals, Basel, Switzerland). DIG labeled probes (TYLCV-CP—SEQ ID NO: 40) which hybridize with nucleotides 530-908 of the sequence identified by GenBank Accession No. X15656 were prepared according to the manufacturers protocol. Northern and Western analyses were carried out according to standard procedures. Probes for Northern analysis were labeled as described for the Southern blot analysis. Detection of GUS and GFP activities were performed according to published procedures [Jefferson, R. A., EMBO J. 6, 3901-3907 (1987); Blumenthal, A., Plant Science 142, 93-99 (1999)]. Chemiluminescent probes for Western blots were prepared with the SuperSignal West Pico kit (Pierce, Rockford, Ill., USA), using polyclonal antibodies against TYLCV-CP (Bioreba, Reinach, Switzerland) All probes were prepared according to the respective manufacturer's protocol. […]
# Southern analysis was done without shearing, and with or without cleaving DNA with BglII. Two major bands were detected in samples from IL-60-BS, as well as TYLCV-infected plants (lanes 3-6, and lane 2 respectively of FIG. 3a). […]
# tomato plants = assay: Vector replication, spread, reporter expression and symptoms in tomato plants (PCR, GUS staining); format: in vivo
# Description: Propagation of the virus-plasmid vectors and their administration to plants—E. coli cells were transformed with IL-60 (SEQ ID NO: 2), IL-60-BS (SEQ ID NO: 1), IL-60-BS-GUS and IL-60-BS-GFP and propagated under ampicillin selection; the construct was extracted using standard procedures. IL-60-BS was administered directly into plants, without mediation by Agrobacterium. The stem, or leaf petiole, of the recipient plant was punctured by a hypodermic needle. A capillary tube was inserted into the resultant hole, and approximately 2 microgram of DNA (in 100 μl of 5 mM Tris-HCl; pH 8.5) were pipetted into the capillary tube until fully soaked by the plant. For large-scale applications, samples were delivered into plants by the BIM-LAB instrument (Bio-OZ biotechnologies, Yad Mordechai, Israel).
# PCR analysis—PCR analysis was carried out according to standard procedures. DNA for PCR analysis was extracted as described in Bernatzky R. and Tanksley, S. D. [Theor. Appl. Genet. 72:314-321 (1986)], from leaves positioned at least 3 leaves above the point of administration. Tomato plants carry Geminivirus sequences in their genome [Ashby, M. K. et al., Plant Mol. Biol. 35, 313-321 (1997)]. Thus, it was also necessary to ascertain that PCR products were obtained from vector templates and not from native viral infection or plant sequences. Therefore, PCR tests were carried out with primers distinguishing IL-60 from TYLCV, or spanning the junction between IL-60 and the plasmid. • (i) primers distinguishing IL-60 from TYLCV; 977 (forward): gaa ggc tga act tcg aca g (SEQ ID NO: 16), 966 (reverse): att ggg ctg ttt cca tag ggc (SEQ ID NO: 17) • (ii) primers which amplify the junction between Bluescript and IL-60; 939 (forward) aga gac acc gat tca ttt caa c (SEQ ID NO: 18); 940 (reverse) gcg gat aac aat ttc aca cag (SEQ ID NO: 19).
# In order to detect the presence of plasmids carrying reporter genes, PCR was performed with primers amplifying the reporter gene inserted into IL-60-BS. • iii) GUS specific primers: 408 (forward) gaa caa cga act gaa ctg gca gac (SEQ ID NO: 25); 167 (reverse) cag cgt aag ggt aat gcg ag (SEQ ID NO: 26). • iv) GFP specific primers: 895 (forward) ggc cga att cag taa agg aga ag (SEQ ID NO: 27); 345 (reverse) tgt gtg gac agg taa tgg (SEQ ID NO: 28).
# TYLCV, IL-60, IL-60-BS and reporter gene derivative plasmids were either agroinoculated or injected into tomato plants and their replication and spread was monitored with symptom observation, PCR analysis and Southern blot. The expression of viral and reporter genes was assessed using PCR, Northern and Western analysis, GUS staining and GFP fluorescence as described above in methods and materials.
molecule,measurement,setting,value
"O=[N+]([O-])c1c(Cl)cccc1-c1c[nH]cc1Cl [PRN, Pyrrolnitrin]",reduction in infectivity of several fungi,several fungi,up to 8 fold
"IL-60-BS: IL-60 with Bluescript II-KS+ plasmid inserted, interrupting rep and C4 (SEQ ID NO: 1)",transmission of vector by insects to non-carrying plants,Bemisia tabaci,did not carry the IL-60-BS vector
same,integration into the plant genome,plant genome,had not been integrated into the plant's genome
same,efficiency of administration into plants,tomato plants; direct injection,over 90%
same,symptoms in injected plants,tomato plants; more than 64 injected tomato plants,did not present any symptom
same,persistence of vector after injection,"tomato plants; tomato plants, PCR, duration of the plants life-span",12 months
same,"vector found / replication indicated by PCR, time post injection","tomato plants; tomato plants, leaves remote from the point of injection",3 days
IL-60: TYLCV-derived vector (SEQ ID NO: 2) with 60-nt coat protein deletion and frame shift,infection after agroinoculation,"tomato plants; tomato plants agroinoculated with the multimeric form, kept until fruit set","systemic, but symptomless infection"
